Reference: patent US8883170B2 (priority 2008, dated 2014)
Read-outs that look alike come from different tables or passages of the source.

How the values were obtained:
[1] = test system: recombinant hemagglutinin antigen (rHA) of influenza A; type: in vivo; settings: compound 100 μg + rHA 5 μg; for Anti-rHA Titer IgG1 / Anti-rHA Titer IgG2a / Anti-rHA Titer IgG2b: s.c. Days 1 and 22, serum Day 43; for Anti-rHA Titer Total IgG: s.c. Days 1 and 22, serum Day 43, BALB/c mice
spleen cells = test: Immunogenicity study with rHA: lymphoproliferation of restimulated spleen cells (3H-TdR incorporation); type: in vivo, BALB/c mice; settings: mice immunized with compound 100 μg + rHA 5 μg; for Lymphoproliferation Con A: restimulated with concanavalin A 4 days; for Lymphoproliferation Medium: restimulated with medium (background) 4 days; for Lymphoproliferation rHA: restimulated with rHA 4 days
BALB/c mice = settings: for overall toxicity conclusion: acute toxicity study in mice; for 7-Day Survival Males: male mice; for observations in treated animals: mice
humans = settings: in humans; cited from earlier work
[2] = single s.c. dose 250 μg, female mice
[3] = single s.c. dose 500 μg, female mice
[4] = single s.c. dose 1 mg, female mice
[5] = single s.c. dose 2 mg, female mice
[6] = single s.c. dose 4 mg in DMSO, female mice

Row | Compound | Anti-rHA Titer IgG1 [1] | Anti-rHA Titer IgG2a [1] | Anti-rHA Titer IgG2b [1] | Anti-rHA Titer Total IgG [1] | Lymphoproliferation Con A (spleen cells) | Lymphoproliferation Medium (spleen cells) | Lymphoproliferation rHA (spleen cells) | overall toxicity conclusion (BALB/c mice) | 7-Day Survival Females (BALB/c mice; [2]) [%] | 7-Day Survival Males (BALB/c mice; single s.c. dose 250 μg) [%] | 7-Day Survival Females (BALB/c mice; [3]) [%] | 7-Day Survival Males (BALB/c mice; single s.c. dose 500 μg) [%] | 7-Day Survival Females (BALB/c mice; [4]) [%] | 7-Day Survival Males (BALB/c mice; single s.c. dose 1 mg) [%] | 7-Day Survival Females (BALB/c mice; [5]) [%] | 7-Day Survival Males (BALB/c mice; single s.c. dose 2 mg) [%] | 7-Day Survival Females (BALB/c mice; [6]) [%] | 7-Day Survival Males (BALB/c mice; single s.c. dose 4 mg in DMSO) [%] | observations in treated animals (BALB/c mice; single s.c. injection) | further results
1 | CCCCCCCCCCCCNC(=O)C12CCC(C)(C)CC1C1=CCC3C4(C)CCC(O)C(C)(C=O)C4CCC3(C)C1(C)CC2 (stereo not shown) [Dodecyl genin, dodecylamide derivative of gypsogenin] | 20,984 | 6600 | 1466 | 3418 | 278,393 | 772 | 30,402 | general lack of toxicity | 100 | 100 | 100 | 100 | 100 | 100 | 100 | 100 | 100 | 100 | lethargy, hair loss, and skin irritation at the injection site | 
2 | CC1(C)CC[C@]2(C(=O)O)CC[C@]3(C)C(=CC[C@@H]4[C@@]5(C)CC[C@H](O)[C@@](C)(C=O)[C@@H]5CC[C@]43C)[C@@H]2C1 [Gypsogenin, gypsogenin, reference compound] | 3220 | 348 | 1118 | 1136 | 321,750 | 356 | 8507 | general lack of toxicity | 100 | 100 | 100 | 100 | 100 | 100 | 100 | 100 | 100 | 100 | lethargy, hair loss, and skin irritation at the injection site | stability on storage (TLC, purity checked periodically) (kept in cold (below −4° C.), 1 year): no change was observed; stability on storage (TLC) (room temperature storage): decomposition was seen
3 | CCCCCCCCCCCCNC(=O)[C@]12CCC(C)(C)C[C@H]1C1=CCC3[C@@]4(C)CC[C@H](OC5OC(CO)C(O)C(O)C5O)[C@@](C)(C=O)C4CC[C@@]3(C)[C@]1(C)CC2 (stereo partly shown) [Saponin 1] | 29,100 | 446 | 2008 | 5130 | 232,769 | 268 | 3696 | general lack of toxicity | 100 | 100 | 100 | 100 | 100 | 100 | 80 | 100 | 80 | 100 | lethargy, hair loss, and skin irritation at the injection site | maximum tolerated dose (MTD) for females (BALB/c mice; single s.c. injection, female mice): 1 mg
4 | QS-21 |  |  |  |  |  |  |  |  |  |  |  |  |  |  |  |  |  |  |  | dose associated with significant local reactions (humans): ≥ 200 µg
